Experiment [1] addresses T1, S1P1 (Homo sapiens, UniProt P21453). The experiment in a line: 35S-GTPγS binding assay, S1P1 membranes. The note with it: membranes from CHO cells expressing S1P1; read-out: S1P1/GTPG EC50. The class given is biochemical. As for the experimental part: (§1) Membranes Preparation: Membranes were prepared from CHO cells expressing S1P1 or S1P3 for use in ligand and 35S-GTPγS binding studies. Cells were suspended in 50 mM TRIS, pH 7.4, 2 mM EDTA, 250 mM Sucrose (buffer A) and 1× Complete protease inhibitor cocktail (Roche), and disrupted at 4° C. by N2 decompression using a cell disruption bomb (Parr Instrument). Following centrifugation at 1000 RPM for 10 min at 4° C., the supernatant was diluted (2×) in buffer A and centrifuged again at 19000 RPM for 75 min at 4° C. The pellet was then suspended in 10 mM HEPES, pH 7.4, 1 mM EDTA, 250 mM Sucrose (Buffer B), and 1× Complete EDTA-free protease inhibitor cocktail and homogenized using a potter. Membranes were flash frozen in liquid N2 and stored at −80° C.
Measurements of 35S-GTPγS Binding: Membranes (1 to 10 μg protein) prepared as described above, were incubated in 96-well Scintiplates (PerkinElmer) with test compounds diluted in DMSO, in 140 μl of 20 mM HEPES, pH 7.4, 10 mM MgCl2, 2 μg/well Saponin, 0.2% fatty acid free BSA (Assay buffer), 125 mM NaCl and 1.5 μM GDP. The assay was initiated with the addition of 60 μl of 1.5 nM [35S]-GTPγS (1100 Ci/mmol; GE Healthcare) in assay buffer. After 60 min incubation at 30° C. on a shaker, plates were centrifuged for 10 min at 2000 RPM. Supernatant was discarded and membrane bound radioactivity was measured on a PerkinElmer 1450 MicroBeta counter. Triplicate samples were averaged and expressed as % response relative to S1P activation in absence of compound (n=2).
The “potency” or the “activity” of the compounds is determined by the EC50 values as evaluated in the above described 35S-GTPγS binding assay.

Experiment [2] concerns the target T1, S1P1. The experiment in a line: Receptor binding assay, [33P]sphingosine 1-phosphate competition, S1P1. As to the method:
as §1
(§2) Receptor binding assay: [33P]sphingosine 1-phosphate (3000 Ci/mmol; American Radiolabeled Chemicals, Inc.) was added to test compounds in 20% DMSO by competition. Membranes and WGA SPA beads (GE Healthcare) were added to give a final volume of 100 μl in 96-well plates or 50 μl in 384-well plates with assay concentrations of 30 pM or 15 pM [33P]sphingosine 1-phosphate (respectively for S1P1 or S1P3), 50 mM HEPES, pH 7.5, 5 mM MgCl2, 100 mM NaCl, 0.4% fatty acid-free BSA, 1-5 μg/well of proteins in 96-well plates vs 0.6-1 μg/well of proteins in 384-well plates and 100 μg/well of WGA SPA beads in 96-well plates vs 75 μg/well of WGA SPA beads in 384-well plates. Binding was performed for 60 min at RT on a shaker and bound radioactivity was measured on a PerkinElmer 1450 MicroBeta counter. Triplicate samples were averaged and normalized as purcentage of inhibition relative to total binding (only DMSO in well) and non specific binding (1000-fold excess of unlabeled S1P). Binding data were analyzed using the GraphPad Prism program or Genedata software.

Experiment [3] addresses T2, human S1P1 Receptor fused to the green fluorescent protein (EGFP) (Homo sapiens, UniProt P21453).
T2 construct: host or cells: U2OS (human bone osteosarcoma epithelial cells), CMV promoter, geneticin selection
Nature of the experiment: Internalization of S1P1 in S1P1-U2OS cells by cell imaging analysis. The class given is cell-based. Particulars: 1 hour incubation, 384-well. As to the method:
Cellular Functional Assays: Internalization of Sphingosine-1-Phosphate Receptor 1 (S1P1) in a Human Cell Line (U2OS) in a 384-Well Format Using a Cell Imaging Analysis.
The S1P1 internalization assay was performed in 384 well plates (Corning® 384 black with clear bottom 3712) using S1P1-U2OS cells from BioImage (C039A), a human epithelial cell line (Human Bone Osteosarcoma Epithelial Cells). These cells expressed the human S1P1 Receptor fused to the green fluorescent protein (EGFP). A standard CMV promoter (cytomegalovirus promoter) controls the expression of S1P1-EGFP and continuous expression was maintained by addition of geneticin to the culture medium.
S1P1 Receptor desensitization induced the internalization of the membrane-localized S1P1-EGFP fusion protein to endosomes, which can be monitored by cell imaging analysis.
The cells are plated in low serum medium (Dulbecco's Modified Eagle Medium (DMEM) with Glutamax-1 and high glucose, 1% Penicillin/Streptomycin, 1% Fetal Calf Serum (FCS), 0.5 mg/ml Geneticin) overnight.
The next day, S1P1-U2OS cells are incubated in 20 μl serum free medium (DMEM with Glutamax-1 and high glucose, 0.1% of fatty-acid free Bovin Serum Albumin (BSA), 10 mM, N′-2-Hydroxyethylpiperazine-N′-2 ethanesulphonic acid (HEPES) 1M) for 2 hours at 37° C./5% CO2.
The cells are then treated with 4 μl compounds/agonists (6×/3% DMSO) for a total volume of 24 μl, and plates are incubated for 1 hour at 37° C./5% CO2.
S1P1-U2OS cells are fixed with 25 μl Paraformaldehyde 8% and stained with Hoechst 33345 dye (1:1000) for 20 minutes.
They were then washed 3 times with Phosphate Buffered Saline (PBS) and plates are sealed.
The internalization of the receptor S1P1-EGFP is measured on Cellomics by calculating the “spot count per object” (“object” corresponds to nuclear and “spot” corresponds to S1P1-EGFP receptor). Internalization data were observed thanks to vHCS View and analyzed using Genedata® software.

In a further experiment the target is S1P3 (Homo sapiens, UniProt Q99500). The experiment in a line: Receptor binding assay, [33P]sphingosine 1-phosphate competition, S1P3. As to the method: as §1, §2
Chain of S1P3 (Q99500 whole entry, species assumed): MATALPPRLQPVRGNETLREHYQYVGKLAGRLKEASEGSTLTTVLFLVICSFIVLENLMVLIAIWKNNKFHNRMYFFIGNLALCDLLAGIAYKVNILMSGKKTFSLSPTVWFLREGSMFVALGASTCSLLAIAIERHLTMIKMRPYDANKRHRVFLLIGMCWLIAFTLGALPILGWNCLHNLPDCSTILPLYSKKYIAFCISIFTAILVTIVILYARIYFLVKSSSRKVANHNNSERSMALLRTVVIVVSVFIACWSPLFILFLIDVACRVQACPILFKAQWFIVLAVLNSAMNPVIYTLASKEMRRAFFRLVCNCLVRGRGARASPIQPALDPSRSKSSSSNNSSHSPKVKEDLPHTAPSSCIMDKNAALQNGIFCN
Setting [4] is: 96 well-plate, read-out: S1P1 binding IC50 (M) (96 well-plate).
Setting [5] is: 384 well-plate, read-out: S1P1 binding IC50 (M) (384 well-plate).
[6] abbreviates: 96 well-plate, read-out: S1P3 binding IC50 (M) (96 well-plate).
Setting [7] is: 384 well-plate, read-out: S1P3 binding IC50 (M) (384 well-plate).

The structures appear in SMILES notation. Where a name gives a salt, the structure may show the parent alone. Read-outs that look alike come from different tables or passages of the source.

T1 sequence (P21453 whole entry, species assumed): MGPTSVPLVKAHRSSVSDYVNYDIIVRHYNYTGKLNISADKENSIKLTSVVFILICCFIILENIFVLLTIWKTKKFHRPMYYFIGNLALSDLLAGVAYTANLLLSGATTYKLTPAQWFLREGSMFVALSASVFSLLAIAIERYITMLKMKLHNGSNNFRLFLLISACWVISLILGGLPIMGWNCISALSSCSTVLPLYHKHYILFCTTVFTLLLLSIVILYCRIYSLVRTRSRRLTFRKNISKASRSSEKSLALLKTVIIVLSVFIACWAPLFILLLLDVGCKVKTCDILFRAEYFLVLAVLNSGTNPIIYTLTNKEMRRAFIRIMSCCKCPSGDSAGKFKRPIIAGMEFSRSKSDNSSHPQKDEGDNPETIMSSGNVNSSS
T2 sequence (P21453 with tags, fused parts or gaps): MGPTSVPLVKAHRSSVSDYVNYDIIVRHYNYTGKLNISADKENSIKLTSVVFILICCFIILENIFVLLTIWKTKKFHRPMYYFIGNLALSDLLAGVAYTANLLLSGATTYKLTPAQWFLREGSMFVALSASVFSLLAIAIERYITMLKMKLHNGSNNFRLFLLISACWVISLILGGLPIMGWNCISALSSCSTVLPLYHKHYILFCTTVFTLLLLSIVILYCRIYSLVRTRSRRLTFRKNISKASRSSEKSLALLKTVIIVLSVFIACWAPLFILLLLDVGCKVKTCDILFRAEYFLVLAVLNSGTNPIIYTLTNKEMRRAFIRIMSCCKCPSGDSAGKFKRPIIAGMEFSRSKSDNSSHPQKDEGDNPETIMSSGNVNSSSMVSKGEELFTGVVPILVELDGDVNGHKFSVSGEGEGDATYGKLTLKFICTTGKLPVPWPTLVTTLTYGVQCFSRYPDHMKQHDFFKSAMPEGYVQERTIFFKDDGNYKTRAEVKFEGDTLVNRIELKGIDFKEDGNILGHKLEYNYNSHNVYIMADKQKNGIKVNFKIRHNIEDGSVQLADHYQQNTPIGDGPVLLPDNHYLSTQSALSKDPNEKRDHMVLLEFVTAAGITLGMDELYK

For `COCc1cc(-c2nc(-c3cnc(NCCC(=O)OC(C)(C)C)c(Cl)c3)no2)ccc1-c1ccccc1C` [Example 35, tert-butyl N-(3-chloro-5-{5-[2-(methoxymethyl)-2′-methylbiphenyl-4-yl]-1,2,4-oxadiazol-3-yl}pyridin-2-yl)-beta-alaninate], at S1P1 [1], the EC50 stood at 9.45 nM.
Consider `COCc1cc(-c2nc(-c3ccc(N)nc3)no2)ccc1-c1ccccc1F` [Example 52, 5-{5-[2′-fluoro-2-(methoxymethyl)biphenyl-4-yl]-1,2,4-oxadiazol-3-yl}pyridin-2-amine], for which the half-maximal inhibitory concentration (IC50) on S1P1 [2] (setting [4]) is 1.65e-09 M; on S1P1 [2] (setting [5]), 1.82e-08 M; at S1P3 (setting [6]), 3.62e-06 M; at S1P3 (setting [7]) it was 3.25e-06 M. The molecule further showed an EC50 in experiment [3] of 23.1 nM.
For the molecule `Cc1ccccc1-c1ccc(-c2nc(-c3ccc(CN(C)CC(=O)O)nc3)no2)cc1C(F)(F)F` [Example 74, 2-(methyl((5-(5-(2′-methyl-2-(trifluoromethyl)biphenyl-4-yl)-1,2,4-oxadiazol-3-yl)pyridin-2-yl)methyl)amino)acetic acid], the results for the IC50 at S1P1 [2] (setting [5]) and at S1P3 (setting [7]) were 7.83e-09 M and 2.88e-06 M, respectively. Besides, in experiment [3], the EC50 was found to be 17.9 nM.
For the molecule `O=C(O)CCNc1ncc(-c2noc(-c3ccc(-c4ccccc4F)c(C(F)(F)F)c3)n2)cc1Cl` [Example 63, N-(3-chloro-5-{5-[2′-fluoro-2-(trifluoromethyl)biphenyl-4-yl]-1,2,4-oxadiazol-3-yl}pyridin-2-yl)-beta-alanine], the values for the IC50 at S1P1 [2] (setting [4]), on S1P1 [2] (setting [5]) and at S1P3 (setting [6]) were 5.4e-09 M, 1.73e-08 M and 3.87e-06 M, respectively. This molecule also registered an EC50 in experiment [3] of 50 nM.
As to `COCc1cc(-c2nc(-c3cnc(Cl)c(F)c3)no2)ccc1-c1ccccc1C` [Example 60, 2-chloro-3-fluoro-5-{5-[2-(methoxymethyl)-2′-methylbiphenyl-4-yl]-1,2,4-oxadiazol-3-yl}pyridine], the IC50 on S1P1 [2] (setting [4]) stood at 2.83e-09 M; on S1P1 [2] (setting [5]), 4.34e-09 M; on S1P3 (setting [6]), 6.53e-06 M; at S1P3 (setting [7]), 3e-06 M. For the same molecule, the EC50 in experiment [3] came out at 19.5 nM.
As for `Cc1ccccc1-c1ccc(-c2nc(-c3cnc(NCCC(=O)O)c(C)c3)no2)cc1C(F)(F)F` [Example 59, N-(3-methyl-5-{5-[2′-methyl-2-(trifluoromethyl)biphenyl-4-yl]-1,2,4-oxadiazol-3-yl}pyridin-2-yl)-beta-alanine, hydrochloride salt], the 50% inhibitory concentration (IC50) at S1P1 [2] (setting [4]) worked out at 1.04e-08 M; at S1P1 [2] (setting [5]) it was 4.56e-08 M; at S1P3 (setting [6]) it was 2e-05 M. The EC50 in experiment [3] was determined as 156 nM.
For `Cc1ccccc1-c1ccc(-c2nc(-c3ccnc(CN(C)CC(=O)O)c3)no2)cc1C(F)(F)F` [Example 75, 2-(((4-(5-(2-(trifluoromethyl)-2′-methylbiphenyl-4-yl)-1,2,4-oxadiazol-3-yl)pyridin-2-yl)methyl)(methyl)amino)acetic acid], the IC50 at S1P1 [2] (setting [5]) amounted to 9.46e-09 M; on S1P3 (setting [7]) it was 2.26e-06 M. The molecule also had an EC50 in experiment [3] of 15.2 nM.
Consider `COCc1cc(-c2nc(-c3cnc(NCCCC(=O)O)c(Cl)c3)no2)ccc1-c1ccccc1F` [Example 54, 4-[(3-chloro-5-{5-[2′-fluoro-2-(methoxymethyl)biphenyl-4-yl]-1,2,4-oxadiazol-3-yl}pyridin-2-yl)amino]butanoic acid, hydrochloride salt], for which the figures for the half-maximal inhibitory concentration (IC50) at S1P1 [2] (setting [4]) and at S1P3 (setting [6]) were 2.01e-09 M and 9.32e-07 M, respectively. This molecule also showed an EC50 in experiment [3] of 16.4 nM.
The like results for `COCc1cc(-c2nc(-c3cnc(NCCC(=O)O)c(Cl)c3)no2)ccc1-c1ccccc1F` [Example 48, N-(3-chloro-5-{5-[2′-fluoro-2-(methoxymethyl)biphenyl-4-yl]-1,2,4-oxadiazol-3-yl}pyridin-2-yl)-beta-alanine, hydrochloride salt] were, in that order, 3.15e-09 M, 1.37e-06 M and 28.7 nM.
For the molecule `CC1CCCCN1c1ccc(-c2nc(-c3ccnc(CN(C)CC(=O)O)c3)no2)cc1C(F)(F)F` (centres unmarked) [Example 66, 2-(methyl((4-(5-(4-(2-methylpiperidin-1-yl)-3-(trifluoromethyl)phenyl)-1,2,4-oxadiazol-3-yl)pyridin-2-yl)methyl)amino)acetic acid], the IC50 is 3.3e-09 M at S1P1 [2] (setting [4]), 8.68e-09 M at S1P1 [2] (setting [5]), 7.44e-07 M on S1P3 (setting [6]) and 1.38e-06 M at S1P3 (setting [7]). The EC50 in experiment [3] came to 14.5 nM.
On to `CCc1ccccc1-c1ccc(-c2nc(-c3cnc(N)c(Cl)c3)no2)cc1COC` [Example 43, 3-chloro-5-{5-[2′-ethyl-2-(methoxymethyl)biphenyl-4-yl]-1,2,4-oxadiazol-3-yl}pyridin-2-amine], for which the IC50 is 2.44e-09 M at S1P1 [2] (setting [4]), 4.1e-08 M on S1P1 [2] (setting [5]) and 1.12e-05 M at S1P3 (setting [6]). The molecule further yielded an EC50 in experiment [3] of 33.5 nM.
On to `COCc1cc(-c2nc(-c3cnc(NCCC(=O)O)c(Cl)c3)no2)ccc1-c1ccccc1Cl` [Example 50, N-(3-chloro-5-{5-[2′-chloro-2-(methoxymethyl)biphenyl-4-yl]-1,2,4-oxadiazol-3-yl}pyridin-2-yl)-beta-alanine, hydrochloride salt], for which the concentration for half-maximal inhibition (IC50) on S1P1 [2] (setting [4]) was found to be 1.58e-09 M; at S1P1 [2] (setting [5]), 1.98e-08 M; on S1P3 (setting [6]) it was 5.82e-06 M; at S1P3 (setting [7]), 9.45e-06 M. In experiment [3], this molecule came in with an EC50 of 17.3 nM.
`COCc1cc(-c2nc(-c3ccc(NCCCCO)nc3)no2)ccc1-c1ccccc1C` [Example 51, 4-[(5-{5-[2-(methoxymethyl)-2′-methylbiphenyl-4-yl]-1,2,4-oxadiazol-3-yl}pyridin-2-yl)amino]butan-1-ol, hydrochloride salt]: the IC50 amounted to 1.05e-08 M on S1P1 [2] (setting [4]), 1.79e-05 M on S1P3 (setting [6]) and 2e-05 M at S1P3 (setting [7]). The EC50 in experiment [3] is 85.3 nM.
On the same counts, the results for `COCc1cc(-c2nc(-c3cnc(NCCCC(=O)O)c(C)c3)no2)ccc1-c1ccccc1C` [Example 57, 4-[(5-{5-[2-(methoxymethyl)-2′-methylbiphenyl-4-yl]-1,2,4-oxadiazol-3-yl}-3-methylpyridin-2-yl)amino]butanoic acid, hydrochloride salt] are 5.6e-09 M, 7.44e-06 M, 8.67e-06 M and 81.4 nM.

For the origin of these results see US20110306636A1, “OXAZOLE PYRIDINE DERIVATIVES USEFUL AS S1P1 RECEPTOR AGONISTS” (Merck Serono SA, priority 2009, published 2011).
